“Also recorded” adds a separate entry of the source.
Tests used:
[1] = tested on: CCl4-induced liver fibrosis; assay: CCl4-induced liver fibrosis model in mice (Masson Trichrome, ALT, gross morphology); type: in vivo, mouse
Protocol: (§1) Animal Care: All animal care and experimental procedures were approved by the Institutional Animal Care and Use Committee at the University of Connecticut. Shp^−/− mice were described previously. Hmgb2^−/− mice were obtained from Dr. Stella Tsirka at Stony Brook University. C57BL/6J mice were purchased from Jackson Laboratory. All mice were maintained on a 12-h light/dark cycle with free access to food and water unless otherwise indicated. For CCl4 treatment, CCl4 (Sigma) was dissolved in corn oil and administered to mice at a dose of 850 μl/kg BW by intraperitoneal injection (IP) twice a week for 6 or 10 weeks with or without ICM. Age-matched control mice were treated with a corn oil vehicle. For CCl4+ICM treatment, mice were treated with CCl4 for 2 weeks and then ICM (Department of Pharmaceutical Sciences at UConn) was dissolved in PEG (Sigma) and treated with mice (10 mg/kg) every day for 4 or 8 weeks in combination with CCl4. To induce overexpression of HMGB2 in liver, AAV8-Hmgb2 or a control AAV8-GFP was given to mice by tail vein injection at a dose of 5×10^10 GC. To knockdown HMGB2 in mouse livers, AAV-shHmgb2 or a control AAV-shGFP was delivered to mice at a dose of 2×10^10 GC by tail vein injection. One week later, mice injected with AAVs were treated with CCl4 or CCl4 +ICM as described above and sacrificed. Livers were removed and snap-frozen in liquid nitrogen for RNA and protein analysis. For the collection of mouse fetal livers, pregnant female mice were sacrificed at E12.5, E15, and E18.5 and livers were removed from the embryos. Additionally, post-natal mouse livers were harvested at postnatal day P1 and P60.
Histology: Livers were fixed in 10% neutral buffered formalin and embedded in paraffin. Liver blocks were cut at 5 μm and the sections were stained with hematoxylin and eosin (H&E) and Masson's trichrome according to standard procedures.
ALT and AST: Alanine transaminase (ALT) and Aspartate aminotransferase (AST) were measured by Infinity ALT (GPT) Liquid Stable Reagent and AST (GOT) Liquid Stable Reagent according to the manufacturer's instructions (Thermo Scientific).
For CCl4 treatment, CCl4 (Sigma) was dissolved in corn oil and administered to mice at a dose of 850 µl/kg BW by intraperitoneal injection (IP) twice a week for 6 or 10 weeks with or without ICM. Age-matched control mice were treated with a corn oil vehicle. For CCl4+ICM treatment, mice were treated with CCl4 for 2 weeks and then ICM (Department of Pharmaceutical Sciences at UConn) was dissolved in PEG (Sigma) and treated with mice (10 mg/kg) every day for 4 or 8 weeks in combination with CCl4. To induced overexpression of HMGB2 in liver, AAV8-Hmgb2 or a control AAV8-GFP was given to mice by tail vein injection at a dose of 5×10^10 GC. […]

HMGB1 protein = target: T1, HMGB1 protein (Mus musculus, UniProt P63158); assay: Western blot of HMGB1 protein in liver of CCl4-treated mice; type: in vivo; conditions: CCl4+ICM (FIG. 16)
T1 construct: Total protein lysates were prepared from livers and cells in lysis buffer; from tissue; host or cells: mouse liver
T1 sequence (P63158 1-215): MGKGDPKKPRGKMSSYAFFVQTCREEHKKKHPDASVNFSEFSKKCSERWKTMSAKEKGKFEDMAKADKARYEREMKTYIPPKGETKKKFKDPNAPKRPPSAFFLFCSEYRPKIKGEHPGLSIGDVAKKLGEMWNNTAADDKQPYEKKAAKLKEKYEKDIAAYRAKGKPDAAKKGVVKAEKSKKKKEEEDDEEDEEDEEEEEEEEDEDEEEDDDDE
Protocol: as §1, with “Livers were removed and snap-frozen in liquid nitrogen for RNA and protein analysis. For the collection of mouse fetal livers, pregnant female mice were sacrificed at E12.5, E15, and E18.5 and livers were removed from the embryos. Additionally, post-natal mouse livers were harvested at postnatal day P1 and P60.” left out

CC1(C)Oc2cc(O)ccc2C2C1=CCn1c(=O)n(-c3ccccc3)c(=O)n12 (centres unmarked) [ICM, inflachromene]
liver gross morphology ([1]; ICM 10 mg/kg i.p. daily for 4 wks (FIG. 16B)): improved liver gross morphology
plasma ALT levels ([1]; ICM 10 mg/kg i.p. daily for 4 wks (FIG. 16C)): decreased plasma ALT levels
serum ALT ([1]; ICM (FIG. 5B)): decreases
liver fibrosis ([1]; ICM in PEG 10 mg/kg i.p. daily for 4 wks, Masson Trichrome staining): decreases; also recorded: diminished liver fibrosis
HMGB1 protein (HMGB1 protein): less effect on HMGB1 protein
